Publication PMC11672299, “Conjugation of Polycationic Peptides Extends the Efficacy Spectrum of β‐Lactam Antibiotics” (Advanced Science, 2024)
Peptide text beside a SMILES is read from it. * marks the point of attachment. X1 = CC(C)(O/N=C(\C(=O)N[C@@H]1C(=O)N2C(C(=O)[O-])=C(C[n+]3ccccc3)CS[C@H]12)c1csc(N)n1)C(=O)NCCCCCCN1C(=O)CC(*)C1=O

Columns and labels:
[1] = target: T1, PBP2A (Bacillus subtilis, UniProt P54488); experiment: Gel‐based PBP affinity assay (Bocillin FL competition); type: binding; conditions: B. subtilis membrane fractions, competition with Bocillin FL penicillin; compared with parent β‐lactam
T1 construct: endogenous in cells; host or cells: B. subtilis DSM 10, extracted membrane protein fraction
Experimental: (§1) B. subtilis DSM 10 and E. faecalis ATCC 51 299 (equal to DSM 12 956) membrane protein fractions were extracted according to the protocol of Dean et al. with minor modifications.^[ [34] ^] From a growing overnight bacterial culture, 3 L of LB (Luria‐Bertani) medium or TSB (tryptic soy broth) were inoculated with B. subtilis DSM 10 and E. faecalis ATCC 51 299, respectively, to obtain an OD600 = 0.3. The cultures were grown to an OD600 = 0.6–0.8 while shaking at 37 °C and cells were harvested by centrifugation at 4000 g for 30 min at 4 °C. The resulting pellet was washed twice with pre‐cooled PBS and resuspended in 30 mL of ice‐cooled PBS. The suspension was sonicated on ice (10 cycles of 30 s at 50% power for B. subtilis; 12 cycles of 30 s at 80% power for E. faecalis; 2 min intervals between cycles) using an Omni Ruptor 4000 ultrasonic homogenizer (Omni International, Kennesaw, GA, USA). Afterwards, the suspension was centrifuged at 7000 g for 10 min at 4 °C. The clear supernatant was transferred into a 50 mL polypropylene tube and centrifuged in a Beckman Coulter centrifuge equipped with a JA‐20 fixed‐angle rotor (Beckman Coulter, Krefeld, Germany) at 50 000 g for 1 h at 4 °C. The resulting pellet was washed with ice‐cold PBS and centrifuged a second time. The pellet was resuspended in 2 mL PBS and aliquots were stored at −80 °C. The protein content was determined using Bradford reagent (VWR International, Darmstadt, Germany) and Pierce BCA (bicinchoninic acid) protein assay kits (Thermo Fisher Scientific, Waltham, MA, USA) for membrane fractions of B. subtilis and E. faecalis, respectively.
(§2) Each dilution was combined with B. subtilis (30 µg) or E. faecalis (15 µg) extracted membrane fractions. As reference samples, membrane fractions incubated with only PBS were prepared. Reaction mixtures were incubated for 20 min at 37 °C while shaking at 400 rpm. Next, Bocillin FL penicillin (Thermo Fisher Scientific, Waltham, MA, USA) was added to obtain a final concentration of 20 µM in the mixture. Samples were incubated for 30 min at 37 °C while shaking at 400 rpm. To denature the samples, 4× Laemmli sample buffer (Bio‐Rad Laboratories, Feldkirchen, Germany) was added, and the samples incubated for 10 min at 70 °C. Afterwards, the samples were centrifuged for 5 min at 13 000 rpm. Samples were separated by SDS‐PAGE using a 10% Tris‐glycine gel for 100 min at 180 V. The bands were visualized using a Typhoon FLA 9500 imager (GE Healthcare, Chicago, IL, USA) with excitation at 473 nm. The gel images were analyzed using ImageJ software. Brightness and contrast were adjusted to improve the signal‐to‐noise ratio and the background signal was subtracted over the whole image. Next, integrated density values of the gel bands were measured and Bocillin FL penicillin labeling of each PBP in antibiotic‐treated samples were set in proportion to the reference sample. IC50 values were calculated with GraphPad Prism software (version 8.0.1) using inhibitor versus normalized response variable slope and least‐squares fit. […] The mean was calculated using the IC50 values of at least two independent assays for each antibiotic.

[2] = test system: PBP5; experiment: as above; type: binding; conditions: PBPs from vancomycin‐resistant E. faecalis; compared with parent; at concentrations considerably higher than MICs
Experimental: as §1, §2

[3] = test system: B. subtilis DSM 10; experiment: microbe, parasite or virus in culture; type: cell-based; conditions: DSM 10, 20 h
Experimental: (§3) The minimum inhibitory concentration (MIC) of the β‐lactam–peptide conjugates was determined by broth microdilution as previously described.^[ [17] ^] Briefly, in cation‐adjusted MHB II medium, a twofold serial dilution of the compounds was prepared in 96‐well round‐bottom polystyrene or polypropylene microtiter plates with each well containing 50 µL. The plates were inoculated with 50 µL bacterial suspension and the final inoculum, in a total volume of 100 µL, contained 5 × 10^5 CFU mL^−1. The microplates were incubated for 20 h at 37 ± 1 °C. The lowest concentration preventing visible bacterial growth was considered the MIC value. For susceptibility testing of combinations of β‐lactamase‐inhibitors with either a β‐lactam antibiotic or a β‐lactam–peptide conjugate, fixed concentrations of the inhibitors according to the EUCAST (European Committee on Antimicrobial Susceptibility Testing) guidelines (clavulanic acid = 2 mg L^−1, avibactam = 4 mg L^−1) were used.

[4] = test system: PBPs of B. subtilis; experiment: Gel‐based PBP affinity assay (Bocillin FL competition); type: binding; conditions: at the concentrations tested (0.016–250 µM)
Experimental: as §1, §2

[5] = test system: E. casseliflavus ATCC 700327; experiment: microbe, parasite or virus in culture; type: cell-based; conditions: ATCC 700327, 20 h
Experimental: as §3

[6] = test system: E. faecalis ATCC 29212; experiment: microbe, parasite or virus in culture; type: cell-based; conditions: ATCC 29212, 20 h
Experimental: as §3

[7] = test system: A. pittii Tü21‐041 (clinical isolate); experiment: microbe, parasite or virus in culture; type: cell-based; conditions: 20 h
Experimental: as §3

[8] = test system: K. pneumoniae Tü20‐036 (clinical isolate); experiment: microbe, parasite or virus in culture; type: cell-based; conditions: Tü20‐036 (clinical isolate, 20 h)
Experimental: as §3

[9] = test system: E. coli Tü20‐025 (clinical isolate); experiment: microbe, parasite or virus in culture; type: cell-based; conditions: Tü20‐025 (clinical isolate, 20 h)
Experimental: as §3

[10] = test system: C. freundii Tü21‐052 (clinical isolate); experiment: microbe, parasite or virus in culture; type: cell-based; conditions: 20 h
Experimental: as §3

[11] = test system: A. bohemicus DSM 100419; experiment: MIC by broth microdilution; type: cell-based; conditions: median (n = 3)
Experimental: as §3

T1 sequence (P54488 whole entry): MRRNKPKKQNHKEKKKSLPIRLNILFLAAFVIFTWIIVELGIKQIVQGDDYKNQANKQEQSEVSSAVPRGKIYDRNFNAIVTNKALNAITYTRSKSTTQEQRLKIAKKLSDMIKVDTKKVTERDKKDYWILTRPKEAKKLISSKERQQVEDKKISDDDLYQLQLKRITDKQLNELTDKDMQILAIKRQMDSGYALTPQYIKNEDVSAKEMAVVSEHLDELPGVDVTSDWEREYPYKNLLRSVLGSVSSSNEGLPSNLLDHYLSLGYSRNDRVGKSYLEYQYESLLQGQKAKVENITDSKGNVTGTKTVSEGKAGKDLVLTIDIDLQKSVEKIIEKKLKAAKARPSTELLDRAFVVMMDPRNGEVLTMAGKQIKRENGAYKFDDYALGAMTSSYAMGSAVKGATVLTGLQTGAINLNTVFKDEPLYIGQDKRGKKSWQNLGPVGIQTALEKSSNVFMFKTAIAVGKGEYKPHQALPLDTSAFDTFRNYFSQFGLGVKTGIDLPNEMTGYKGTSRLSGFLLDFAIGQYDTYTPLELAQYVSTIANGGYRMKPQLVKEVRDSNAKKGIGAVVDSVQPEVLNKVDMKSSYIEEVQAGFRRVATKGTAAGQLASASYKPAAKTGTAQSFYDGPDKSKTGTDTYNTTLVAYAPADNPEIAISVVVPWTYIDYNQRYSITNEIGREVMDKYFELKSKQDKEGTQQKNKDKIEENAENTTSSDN

C[C@H]1[C@H](NC(=O)/C(=N\OC(C)(C)C(=O)NCCCCCCN2C(=O)CC(SC[C@H](NC(=O)[C@H](CCCNC(=N)N)NC(=O)[C@H](CCCNC(=N)N)NC(=O)[C@H](CCCNC(=N)N)NC(=O)[C@H](CCCNC(=N)N)NC(=O)[C@H](CCCNC(=N)N)NC(=O)[C@@H](N)CCCNC(=N)N)C(N)=O)C2=O)c2csc(N)n2)C(=O)N1S(=O)(=O)O (stereo partly drawn) [AZT-R6]
affinity to PBP2A [1]: higher affinity
binding to PBP5 [2]: slightly improved binding
MIC [3]: 0.06 µg/mL

N=C(N)NCCC[C@H](NC(=O)[C@H](CCCNC(=N)N)NC(=O)[C@H](CCCNC(=N)N)NC(=O)[C@H](CCCNC(=N)N)NC(=O)[C@H](CCCNC(=N)N)NC(=O)[C@@H](N)CCCNC(=N)N)C(=O)N[C@@H](CS)C(N)=O [R6C]
binding to the PBPs of B. subtilis [4]: not observed
MIC [5]: > 64 µg/mL
MIC [3]: > 64 µg/mL
MIC [6]: > 64 µg/mL

N=C(N)NCCC[C@H](NC(=O)[C@H](CCCNC(=N)N)NC(=O)[C@H](CCCNC(=N)N)NC(=O)[C@H](CCCNC(=N)N)NC(=O)[C@H](CCCNC(=N)N)NC(=O)[C@@H](N)CCCNC(=N)N)C(=O)N[C@@H](CSC1CC(=O)N(CCCCCCN)C1=O)C(N)=O (stereo partly drawn) [BB linker‐R6]
MIC [7]: >64 µg/mL
MIC [5]: >64 µg/mL
MIC [3]: >64 µg/mL
MIC [8]: >64 µg/mL
MIC [9]: >64 µg/mL
MIC [6]: >64 µg/mL
MIC [10]: >64 µg/mL

CC(C)(O/N=C(\C(=O)N[C@@H]1C(=O)N2C(C(=O)[O-])=C(C[n+]3ccccc3)CS[C@H]12)c1csc(N)n1)C(=O)NCCCCCCN1C(=O)CC(SC[C@H](NC(=O)[C@H](CCCCN)NC(=O)[C@H](CCCCN)NC(=O)[C@H](CCCCN)NC(=O)[C@H](CCCCN)NC(=O)[C@H](CCCCN)NC(=O)[C@H](CCCCN)NC(=O)[C@H](CCCCN)NC(=O)[C@H](CCCCN)NC(=O)[C@@H](N)CCCCN)C(N)=O)C1=O (stereo partly drawn) [CTZ-K9] (H-KKKKKKKKKC(X1)-NH2; N-terminus and C-terminus assumed)
antimicrobial activity (rank among CTZ–peptide conjugates) [11]: most potent conjugates
